Source: patent US20240287070A1, “FUSED HETEROCYCLIC DERIVATIVES” (Janssen Sciences Ireland Unlimited Company, priority 2021, published 2024)

What was measured:
HepG2 or HepG2.117 cells = assay: Cytotoxicity, ATPlite Luminescence Assay; type: cell-based, human; conditions: 3-days incubation unless marked with *
Procedure, shortened: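 Compounds were added to cells and incubated 3 or 4 days. ATP content was then measured by luminescence to gauge cell viability.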

[1] = Human liver microsome stability; type: in vitro ADME; conditions: pooled human liver microsomes 0.5 mg/mL, 1 μM compound, NADPH 1 mM, 37° C., 0-60 min
Procedure, shortened: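 Half-life came from elimination rate constant (negative slope of ln compound/internal standard area ratio over time), measured by cassette LC-MS after acetonitrile quench. Human liver microsome reactions, one replicate per compound, were initiated with NADPH (1 mM final) and sampled at six points up to 60 min.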

[2] = tested on: HBV (HepG2.117 cell line, inducibly HBV producing); assay: Anti-HBV activity, intracellular HBV DNA by real-time PCR in HepG2.117 cell line; type: cell-based, hepatitis B virus; conditions: HepG2.117 cells, 3 days of treatment
Procedure, shortened: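 First, HBV replication is induced in HepG2.117 cells by doxycycline absence. Next, serially diluted compound is added for 3 days. Finally, intracellular HBV DNA is quantified by HBV-specific real-time PCR.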

Row | SMILES | CC50 (HepG2 or HepG2.117 cells) [µM] | HLM Metabolism t1/2 [1] [h] | EC50 [2] [µM]
1 | Cc1ncc(C(C)N2C[C@@H](C)n3nc4c(c3C2=O)CN(C(=O)c2ccc(Cl)c(Cl)c2)[C@H](C)C4)cn1 (single isomer, unassigned) [Compound 4B, (3R,7R)-2-(3,4-dichlorobenzoyl)-3,7-dimethyl-9-((S*)-1-(2-methylpyrimidin-5-yl)ethyl)-1,2,3,4,8,9-hexahydropyrido[4′,3′:3,4]pyrazolo[1,5-a]pyrazin-10(7H)-one] | > 50 | >3 | 0.057
2 | C[C@@H]1Cc2nn3c(c2CN1C(=O)c1ccc(Cl)c(C(F)(F)F)c1)C(=O)N([C@H](C)c1ccc([S@](C)(=O)=NC#N)cc1)C[C@H]3C (relative stereo) [Compound 20B, N—((S*)-(4-((R*)-1-((3R,7R)-2-(4-chloro-3-(trifluoromethyl)benzoyl)-3,7-dimethyl-10-oxo-1,3,4,7,8,10-hexahydropyrido[4′,3′:3,4]pyrazolo[1,5-a]pyrazin-9(2H)-yl)ethyl)phenyl)(methyl)(oxo)-16-sulfaneylidene)cyanamide] | > 50 | 2.6 | 0.089
3 | CC(c1ccc(C(C)(C)O)nc1)N1C[C@@H](C)n2nc3c(c2C1=O)CN(C(=O)c1cc(F)c(Cl)c(F)c1)[C@H](C)C3 (single isomer, unassigned) [Compound 60B, (3R,7R)-2-(4-chloro-3,5-difluorobenzoyl)-9-((S*)-1-(6-(2-hydroxypropan-2-yl)pyridin-3-yl)ethyl)-3,7-dimethyl-1,2,3,4,8,9-hexahydropyrido[4′,3′:3,4]pyrazolo[1,5-a]pyrazin-10(7H)-one] | > 50 | >3 | 0.052
4 | CNS(=O)(=O)c1ccc(C(C)N2C[C@@H](C)n3nc4c(c3C2=O)CN(C(=O)c2ccc(Cl)c(Cl)c2)[C@H](C)C4)cc1 (single isomer, unassigned) [Compound 17B, 4-((S*)-1-((3R,7R)-2-(3,4-dichlorobenzoyl)-3,7-dimethyl-10-oxo-1,3,4,7,8,10-hexahydropyrido[4′,3′:3,4]pyrazolo[1,5-a]pyrazin-9(2H)-yl)ethyl)-N-methylbenzenesulfonamide] | > 50 | 1.6 | 0.026
5 | CC(c1ccc(=O)n(C)n1)N1C[C@@H](C)n2nc3c(c2C1=O)CN(C(=O)c1ccc(Cl)c(Cl)c1)[C@H](C)C3 (single isomer, unassigned) [Compound 55B, (3R,7R)-2-(3,4-dichlorobenzoyl)-3,7-dimethyl-9-((S*)-1-(1-methyl-6-oxo-1,6-dihydropyridazin-3-yl)ethyl)-1,2,3,4,8,9-hexahydropyrido[4′,3′:3,4]pyrazolo[1,5-a]pyrazin-10(7H)-one] | > 50 | >3 | 0.06
6 | CC(c1ccc(C(C)(C)O)nc1)N1C[C@@H](C)n2nc3c(c2C1=O)CN(C(=O)c1cc(C(F)(F)F)c(Cl)cn1)[C@H](C)C3 (single isomer, unassigned) [Compound 58B, (3R,7R)-2-(5-chloro-4-(trifluoromethyl)picolinoyl)-9-((S*)-1-(6-(2-hydroxypropan-2-yl)pyridin-3-yl)ethyl)-3,7-dimethyl-1,2,3,4,8,9-hexahydropyrido[4′,3′:3,4]pyrazolo[1,5-a]pyrazin-10(7H)-one] | > 50 | >3 | 0.19
7 | CC(c1cnn(C)c(=O)c1)N1C[C@@H](C)n2nc3c(c2C1=O)CN(C(=O)c1ccc(Cl)c(C(F)(F)F)c1)[C@H](C)C3 (single isomer, unassigned) [Compound 52B, (3R,7R)-2-(4-chloro-3-(trifluoromethyl)benzoyl)-3,7-dimethyl-9-((S*)-1-(1-methyl-6-oxo-1,6-dihydropyridazin-4-yl)ethyl)-1,2,3,4,8,9-hexahydropyrido [4′,3′:3,4]pyrazolo[1,5-a]pyrazin-10(7H)-one] | > 50 | >3 | 0.016
8 | CC(c1ccc(N2CCCS2(=O)=O)nc1)N1C[C@@H](C)n2nc3c(c2C1=O)CN(C(=O)c1ccc(Cl)c(C(F)(F)F)c1)[C@H](C)C3 (single isomer, unassigned) [Compound 28B, (3R,7R)-2-(4-chloro-3-(trifluoromethyl)benzoyl)-9-((S*)-1-(6-(1,1-dioxidoisothiazolidin-2-yl)pyridin-3-yl)ethyl)-3,7-dimethyl-1,2,3,4,8,9-hexahydropyrido[4′,3′: 3,4]pyrazolo[1,5-a]pyrazin-10(7H)-one] | > 50 | 2.37 | 0.011
9 | CC(c1cnc(C(F)(F)F)cn1)N1C[C@@H](C)n2nc3c(c2C1=O)CN(C(=O)c1ccc(Cl)c(Cl)c1)[C@H](C)C3 (single isomer, unassigned) [Compound 7B, (3R,7R)-2-(3,4-dichlorobenzoyl)-3,7-dimethyl-9-((S*)-1-(5-(trifluoromethyl)pyrazin-2-yl)ethyl)-1,2,3,4,8,9-hexahydropyrido[4′,3′:3,4]pyrazolo[1,5-a]pyrazin-10(7H)-one] | 16.9 | >3 | 0.048
10 | CC(c1ccnc(Cl)c1)N1C[C@@H](C)n2nc3c(c2C1=O)CN(C(=O)c1ccc(Cl)c(Cl)c1)[C@H](C)C3 (single isomer, unassigned) [Compound 31B, (3R,7R)-9-((S*)-1-(2-chloropyridin-4-yl)ethyl)-2-(3,4-dichlorobenzoyl)-3,7-dimethyl-1,2,3,4,8,9-hexahydropyrido[4′,3′:3,4]pyrazolo[1,5-a]pyrazin-10(7H)-one] | 22.7 | 2.12 | 0.019
11 | CC(c1ccc(C(C)(C)O)nc1)N1C[C@@H](C)n2nc3c(c2C1=O)CN(C(=O)c1ccc(Cl)c(C(F)(F)F)n1)[C@H](C)C3 (single isomer, unassigned) [Compound 62B, (3R,7R)-2-(5-chloro-6-(trifluoromethyl)picolinoyl)-9-((S*)-1-(6-(2-hydroxypropan-2-yl)pyridin-3-yl)ethyl)-3,7-dimethyl-1,2,3,4,8,9-hexahydropyrido[4′,3′:3,4]pyrazolo[1,5-a]pyrazin-10(7H)-one] | > 50 | 2.07 | 0.068
12 | CC(c1ccn(CC(C)(C)O)c(=O)c1)N1C[C@@H](C)n2nc3c(c2C1=O)CN(C(=O)c1ccc(Cl)c(C(F)(F)F)c1)[C@H](C)C3 (single isomer, unassigned) [Compound 64B, (3R,7R)-2-(4-chloro-3-(trifluoromethyl)benzoyl)-9-((S*)-1-(1-(2-hydroxy-2-methylpropyl)-2-oxo-1,2-dihydropyridin-4-yl)ethyl)-3,7-dimethyl-1,2,3,4,8,9-hexahydropyrido[4′,3′:3,4]pyrazolo[1,5-a]pyrazin-10(7H)-one] | > 50 | >3 | 0.085
13 | CC(c1ccc(-n2cncn2)nc1)N1C[C@@H](C)n2nc3c(c2C1=O)CN(C(=O)c1ccc(Cl)c(Cl)c1)[C@H](C)C3 (single isomer, unassigned) [Compound 5B, (3R,7R)-9-((S*)-1-(6-(1H-1,2,4-triazol-1-yl)pyridin-3-yl)ethyl)-2-(3,4-dichlorobenzoyl)-3,7-dimethyl-1,2,3,4,8,9-hexahydropyrido[4′,3′:3,4]pyrazolo[1,5-a]pyrazin-10(7H)-one] | 28.4 | 2.08 | 0.017
